“Also recorded” adds a separate entry of the source.
System: tick kinin receptor (recombinant R. microplus receptor, CHO-K1 BMLK3 cells)
Assay: Confocal visualization of recombinant kinin receptor on live BMLK3 cells with fluorescently labeled kinin peptide
Assay type: binding, Rhipicephalus microplus
Text: Three peptides were used in this study. These included: 1) the ligand for the endogenous tick kinin receptor from Rhipicephalus sanguineus, Rhisa-kinin 8 peptide of sequence GTGEDQAFSPWGamide (Rhisa-K-8; RK8; of identical sequence to Rhimi-K-8 in Rhipicephalus microplus)[48], 2) the same peptide but fluorescently labeled at the N-terminus with tetramethylrhodamine (TMR) a red fluorescent dye, designated TMR-Rhisa-K-8 (TMR-RK8), and 3) a labeled peptide synthesized with the scrambled sequence of the kinin ligand, designated TMR-Scrambled. The sequence of TMR-RK8 was TMR-C-GTGEDQAFSPWGamide). The TMR-Scrambled kinin (TMR-C-GTQWGPGFEADSamide) served as a negative control for tissue labeling. […]
The BMLK3 and V/O cells (5000–10,000 cells) were seeded separately in 200 µL selective media onto the two chambers of the cover glass (Lab-Tek Chambered Coverglass, 4.2 cm^2 area, #1.0 German borosilicate glass, sterile, Cat # 155,380, Thermo Fisher Scientific Inc., Walthams, MA) and grown in the incubator overnight at 37 °C and 5% CO2. The next day, cells would be ready for fluorescent labeling: the selective media was replaced with 200 µL HBSS to rinse the cells. […] Images were analyzed and computer-colored using Fiji/ImageJ (National Institutes of Health, Bethesda, MD). […]

With TMR-C-GTGEDQAFSPWGamide [TMR-RK8] the “labeling of BMLK3 cells, Fig. S2 (in words)” value (1 µM TMR-RK8, confocal Leica SP8 with DIC, 1.1 µm Z-step, 13 slices) was “observed in most cells” and the “labeling of BMLK3 cells (in words)” value (live BMLK3 cells, 10 µM labeled peptide, 1 min, HBSS, confocal Leica SP8, Ex 542 nm, Em 572–759 nm) was “showed specific labeling; also recorded: observed only in BMLK3 cells”.
